The results in this text go back to patent publication US20210070748A1, “INHIBITORS OF BRUTONS TYROSINE KINASE” (Pharmacyclics LLC, priority 2015, published 2021).

Holding throughout (assay type): biochemical
One test has as its target T1, ITK (Homo sapiens, UniProt Q08881).
T1 sequence (Q08881 1-620): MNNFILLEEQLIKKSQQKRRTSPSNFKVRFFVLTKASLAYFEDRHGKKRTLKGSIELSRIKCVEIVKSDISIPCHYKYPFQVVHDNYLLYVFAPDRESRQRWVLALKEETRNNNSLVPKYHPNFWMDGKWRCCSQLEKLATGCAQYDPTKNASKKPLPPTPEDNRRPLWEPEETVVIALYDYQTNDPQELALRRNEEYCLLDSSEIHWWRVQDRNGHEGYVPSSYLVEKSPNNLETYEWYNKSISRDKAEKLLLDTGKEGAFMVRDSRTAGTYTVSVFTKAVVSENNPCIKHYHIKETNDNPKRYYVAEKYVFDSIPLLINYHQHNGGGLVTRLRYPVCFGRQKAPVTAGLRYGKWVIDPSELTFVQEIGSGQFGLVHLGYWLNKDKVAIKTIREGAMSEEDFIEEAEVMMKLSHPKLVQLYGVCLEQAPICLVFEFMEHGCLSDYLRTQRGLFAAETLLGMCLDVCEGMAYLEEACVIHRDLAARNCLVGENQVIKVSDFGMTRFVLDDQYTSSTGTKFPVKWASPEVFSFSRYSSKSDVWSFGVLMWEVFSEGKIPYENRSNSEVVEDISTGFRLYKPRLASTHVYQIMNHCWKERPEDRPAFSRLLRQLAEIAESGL
In words: Inhibition of a panel of kinases, in vitro HotSpot kinase assay: ITK. The method, then:
The degree of inhibition of a panel of kinases is determined using the in vitro HotSpot kinase assay (purified enzymes, ^33P-ATP, an appropriate substrate and 1 μM ATP).

Another test deals with LCK (Homo sapiens, UniProt P06239). In words: Inhibition of a panel of kinases, in vitro HotSpot kinase assay: LCK. As to conditions: read-out: IC50 LCK.
The target in the next test is T2, JAK3 (Homo sapiens, UniProt P52333).
T2 sequence (P52333 1-1124): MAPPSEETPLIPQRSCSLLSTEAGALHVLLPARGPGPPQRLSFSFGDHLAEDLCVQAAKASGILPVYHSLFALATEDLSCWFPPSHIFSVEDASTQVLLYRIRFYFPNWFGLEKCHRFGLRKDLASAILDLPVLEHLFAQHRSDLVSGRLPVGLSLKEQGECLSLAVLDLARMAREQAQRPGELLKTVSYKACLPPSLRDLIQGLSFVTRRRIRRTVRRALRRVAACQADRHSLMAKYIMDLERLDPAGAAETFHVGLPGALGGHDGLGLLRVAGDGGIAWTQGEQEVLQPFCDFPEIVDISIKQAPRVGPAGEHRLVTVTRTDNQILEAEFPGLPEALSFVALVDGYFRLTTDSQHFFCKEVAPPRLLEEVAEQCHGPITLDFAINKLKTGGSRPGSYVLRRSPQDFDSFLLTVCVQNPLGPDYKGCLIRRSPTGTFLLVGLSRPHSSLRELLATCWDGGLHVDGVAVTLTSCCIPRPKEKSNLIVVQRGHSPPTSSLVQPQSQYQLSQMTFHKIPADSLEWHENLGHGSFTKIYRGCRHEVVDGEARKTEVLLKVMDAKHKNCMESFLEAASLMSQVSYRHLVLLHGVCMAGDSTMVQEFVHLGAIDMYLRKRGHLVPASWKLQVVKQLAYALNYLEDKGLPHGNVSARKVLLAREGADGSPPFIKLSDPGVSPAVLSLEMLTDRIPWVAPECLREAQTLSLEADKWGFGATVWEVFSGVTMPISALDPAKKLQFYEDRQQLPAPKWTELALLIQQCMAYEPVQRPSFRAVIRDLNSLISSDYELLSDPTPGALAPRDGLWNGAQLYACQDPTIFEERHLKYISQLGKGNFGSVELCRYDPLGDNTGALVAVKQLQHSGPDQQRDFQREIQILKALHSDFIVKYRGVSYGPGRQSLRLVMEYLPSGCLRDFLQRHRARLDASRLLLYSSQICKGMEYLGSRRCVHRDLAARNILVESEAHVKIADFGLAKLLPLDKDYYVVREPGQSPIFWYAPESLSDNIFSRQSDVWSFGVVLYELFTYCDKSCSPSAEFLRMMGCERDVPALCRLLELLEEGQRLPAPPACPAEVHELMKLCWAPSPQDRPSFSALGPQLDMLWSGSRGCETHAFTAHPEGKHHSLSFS
In words: Inhibition of a panel of kinases, in vitro HotSpot kinase assay: JAK3. As to conditions: read-out: IC50 JAK3.

[1] abbreviates: Table 13, A compounds, 1 μM ATP.

Where two headings read alike, the source gives them in different places. Some results are limits rather than exact numbers.

LCK, sequence (P06239 whole entry): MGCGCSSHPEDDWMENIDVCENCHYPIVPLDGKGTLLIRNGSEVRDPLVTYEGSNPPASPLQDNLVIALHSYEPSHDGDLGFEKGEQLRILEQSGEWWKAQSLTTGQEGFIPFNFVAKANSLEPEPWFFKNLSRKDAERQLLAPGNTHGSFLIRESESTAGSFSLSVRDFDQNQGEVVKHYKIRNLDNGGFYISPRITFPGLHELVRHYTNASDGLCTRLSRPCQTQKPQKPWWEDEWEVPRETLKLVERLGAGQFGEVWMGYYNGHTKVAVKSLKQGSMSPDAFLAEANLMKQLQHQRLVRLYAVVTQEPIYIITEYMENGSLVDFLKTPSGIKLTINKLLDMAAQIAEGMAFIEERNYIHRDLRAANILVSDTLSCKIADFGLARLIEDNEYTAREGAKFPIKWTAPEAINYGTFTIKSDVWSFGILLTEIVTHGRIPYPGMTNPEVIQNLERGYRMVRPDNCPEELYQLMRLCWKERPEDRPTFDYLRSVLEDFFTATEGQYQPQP

Regarding `C[C@@H]1[C@H](NC(=O)c2ccc(C(C)(C)C)cc2)CCCN1c1cnc(C(N)=O)c(Nc2ccc(N3CCN(C)CC3)cc2)n1` [Example A-184, 5-[(2R,3R)-3-(4-tert-butylbenzamido)-2-methylpiperidin-1-yl]-3-{[4-(4-methylpiperazin-1-yl)phenyl]amino}pyrazine-2-carboxamide], the IC50 against ITK (setting [1]) is 100 to 1000 nM; on LCK (setting [1]), greater than 10000 nM; at JAK3 (setting [1]), greater than 10000 nM.

For `CC(C)N1CCN(c2ccc(Nc3nc(N4CCC[C@@H](NC(=O)c5ccc(C6CC6)cc5F)[C@H]4C)cnc3C(N)=O)cc2)CC1` [Example A-149, 5-[(2R,3R)-3-(4-cyclopropyl-2-fluorobenzamido)-2-methylpiperidin-1-yl]-3-({4-[4-(propan-2-yl)piperazin-1-yl]phenyl}amino)pyrazine-2-carboxamide], the figures for the IC50 against ITK (setting [1]), on LCK (setting [1]) and at JAK3 (setting [1]) were 10 to 100 nM, 10 to 100 nM and 1000 to 10000 nM, respectively.

Take `C[C@@H]1[C@H](NC(=O)c2ccc(C(=O)N(C)C)cc2)CCCN1c1cnc(C(N)=O)c(Nc2cnn(C)c2)n1` [Example E-138, N1-((2R,3R)-1-(5-carbamoyl-6-((1-methyl-1H-pyrazol-4-yl)amino)pyrazin-2-yl)-2-methylpiperidin-3-yl)-N4,N4-dimethylterephthalamide]: the IC50 at ITK (E compounds, Table 17) was in the range of 100 to 1000 nM; on LCK (E compounds, Table 17), 100 to 1000 nM; at JAK3 (E compounds, Table 17) it was 100 to 1000 nM.

For `C[C@@H]1[C@H](NC(=O)c2ccc(C3CC3)cc2Cl)CCCN1c1cnc(C(N)=O)c(Nc2ccc(N3CCN(C)CC3)cc2)n1` [Example A-180, 5-[(2R,3R)-3-(2-chloro-4-cyclopropylbenzamido)-2-methylpiperidin-1-yl]-3-{[4-(4-methylpiperazin-1-yl)phenyl]amino}pyrazine-2-carboxamide], the results for the IC50 against ITK (setting [1]), at LCK (setting [1]) and on JAK3 (setting [1]) were 100 to 1000 nM, 10 to 100 nM and 1000 to 10000 nM, respectively.

Consider `C=CC(=O)N1CCC[C@@H](Nc2nnc(C(N)=O)c(Nc3ccc(-c4ncco4)cc3)n2)C1` [Example E-40, (R)-3-(1-acryloylpiperidin-3-ylamino)-5-(4-(oxazol-2-yl)phenylamino)-1,2,4-triazine-6-carboxamide], for which the IC50 against ITK (E compounds, Table 17) is 10 to 100 nM; at LCK (E compounds, Table 17) it was 100 to 1000 nM; on JAK3 (E compounds, Table 17) it was less than 10 nM.

Take `C[C@@H]1[C@H](NC(=O)c2ccc(C3CC3)cc2)CCCN1c1cnc(C(N)=O)c(Nc2cnn(C3CCN(C)CC3)c2)n1` [Example A-173]: the values for the IC50 against ITK (setting [1]), on LCK (setting [1]) and at JAK3 (setting [1]) were 100 to 1000 nM, 10 to 100 nM and 1000 to 10000 nM, respectively.

As to `CN1CCN(C(=O)c2ccc(Nc3nc(N4CCC[C@@H](n5ccc6cc(C7CC7)ccc6c5=O)C4)cnc3C(N)=O)cc2)CC1` [Example A-115, 5-[(3R)-3-(6-cyclo-propyl-1-oxo-1,2-dihydroisoquinolin-2-yl)piperidin-1-yl]-3-{[4-(4-methylpiperazine-1-carbonyl)phenyl]amino}pyr-azine-2-carboxamide], the IC50 against ITK (setting [1]), at LCK (setting [1]) and at JAK3 (setting [1]) was 100 to 1000 nM each time.

Turning to `C[C@@H]1[C@H](NC(=O)c2ccc(C3CC3)c(Cl)c2)CCCN1c1cnc(C(N)=O)c(Nc2ccc(N3CCN(C)CC3)cc2)n1` [Example A-189, 5-((2R,3R)-3-(3-chloro-4-cyclopropylbenzamido)-2-methylpiperidin-1-yl)-3-(4-(4-methylpiperazin-1-yl)phenylamino)pyrazine-2-carboxamide], the figures for the IC50 on ITK (setting [1]), on LCK (setting [1]) and at JAK3 (setting [1]) were 100 to 1000 nM, 100 to 1000 nM and 1000 to 10000 nM, respectively.

Take `Cn1cc(Nc2nc(N3CCCC(C)(NC(=O)c4ccc(C5CC5)cc4)C3)cnc2C(N)=O)cn1` (stereo not drawn) [Example E-150, 5-(3-(4-cyclopropylbenzamido)-3-methylpiperidin-1-yl)-3-((1-methyl-1H-pyrazol-4-yl)amino)pyrazine-2-carboxamide]: the IC50 is greater than 10000 nM at ITK (E compounds, Table 17); 1000 to 10000 nM on LCK (E compounds, Table 17); 1000 to 10000 nM on JAK3 (E compounds, Table 17).

Consider `C=CC(=O)N[C@@H]1CCCN(c2cnc(C(N)=O)c(Nc3cc(C)ns3)n2)[C@@H]1C` [Example E-97, 5-((2R,3R)-3-acrylamido-2-methylpiperidin-1-yl)-3-(3-methylisothiazol-5-ylamino)pyrazine-2-carboxamide], for which the IC50 at ITK (E compounds, Table 17) is 10 to 100 nM; at LCK (E compounds, Table 17), 100 to 1000 nM; on JAK3 (E compounds, Table 17), less than 10 nM.

In the case of `C[C@@H]1[C@H](NC(=O)c2ccc(C3CC3)cc2)CCCN1c1cnc(C(N)=O)c(Nc2ccc(OC3CCN(C)C3)cc2)n1` (stereo partly drawn) [Example E-136, 5-((2R,3R)-3-(4-cyclopropylbenzamido)-2-methylpiperidin-1-yl)-3-((4-((1-methylpyrrolidin-3-yl)oxy)phenyl)amino) pyrazine-2-carboxamide], the 50% inhibitory concentration (IC50) at ITK (E compounds, Table 17) was 10 to 100 nM; at LCK (E compounds, Table 17), 10 to 100 nM; at JAK3 (E compounds, Table 17), 100 to 1000 nM.

As to `CC1(c2ccc(Nc3nc(N4CCC[C@@H](n5ccc6cc(C7CC7)ccc6c5=O)C4)cnc3C(N)=O)cc2)CCN(C2CCCC2)CC1` [Example A-141, 3-{[4-(1-cyclopentyl-4-methylpiperidin-4-yl)phenyl]amino}-5-[(3R)-3-(6-cyclopropyl-1-oxo-1,2-dihydroisoquinolin-2-yl)piperidin-1-yl]pyrazine-2-carboxamide], the IC50 on ITK (setting [1]) lay within 10 to 100 nM; on LCK (setting [1]), 10 to 100 nM; at JAK3 (setting [1]), 100 to 1000 nM.

Consider `Cc1cc(Nc2nc(N3CCC[C@@H](NC(=O)N4Cc5ccccc5C4=O)C3)cnc2C(N)=O)sn1` [Example A-183, N-[(3R)-1-{5-carbamoyl-6-[(3-methyl-1,2-thiazol-5-yl)amino]pyrazin-2-yl}piperidin-3-yl]-1-oxo-2,3-dihydro-1H-isoindole-2-carboxamide], for which the results for the IC50 against ITK (setting [1]), at LCK (setting [1]) and on JAK3 (setting [1]) were 10 to 100 nM, 10 to 100 nM and 1000 to 10000 nM, respectively.

Turning to `COCCN(C)Cc1cc(Nc2nc(N3CCC[C@@H](NC(=O)c4ccc(C5CC5)cc4)[C@H]3C)cnc2C(N)=O)sn1` [Example A-185, 5-((2R,3R)-3-(4-cyclopropylbenzamido)-2-methylpiperidin-1-yl)-3-(3-(((2-methoxyethyl)(meth-yl)amino)meth-yl)isothiazol-5-ylamino)pyr-azine-2-carboxamide], the IC50 lay in the range of 100 to 1000 nM against ITK (setting [1]), 100 to 1000 nM on LCK (setting [1]) and 1000 to 10000 nM on JAK3 (setting [1]).

Take `C=CC(=O)N1CCC[C@@H](Nc2nnc(C(N)=O)c(Nc3ccc(C4CCN(C(=O)CC)CC4)cc3)n2)C1` [Example E-45, (R)-3-(1-acryloylpiperidin-3-ylamino)-5-(4-(1-propionylpiperidin-4-yl)phenylamino)-1,2,4-triazine-6-carboxamide]: the IC50 against ITK (E compounds, Table 17) was no more than 10 nM; on LCK (E compounds, Table 17) it was 10 to 100 nM; at JAK3 (E compounds, Table 17), less than 10 nM.

For `C=CC(=O)N[C@@H]1CCCN(c2cnc(C(N)=O)c(Nc3ccc(C4CCN(C5CC5)CC4)cc3)n2)[C@@H]1C` [Example E-93, 5-((2R,3R)-3-acrylamido-2-methylpiperidin-1-yl)-3-(4-(1-cyclopropylpiperidin-4-yl)phenylamino)pyrazine-2-carboxamide], the IC50 against ITK (E compounds, Table 17) is 10 to 100 nM; on LCK (E compounds, Table 17) it was 10 to 100 nM; at JAK3 (E compounds, Table 17), less than 10 nM.
